Results reported in patent publication US6294674A, “Dibenzofuran sulfonamide matrix metalloproteinase inhibitors” (priority 1999, dated 2001).

Tests used:
MMP07 = target: T1, MMP07 (Homo sapiens, UniProt P09237); experiment: Thiopeptolide assay, MMP07; type: biochemical; settings: Tables 2, 3, 5, 7; read-out: IC50 MMP-7
T1 construct: made in house; host or cells: Escherichia coli
T1 sequence (P09237 95-267): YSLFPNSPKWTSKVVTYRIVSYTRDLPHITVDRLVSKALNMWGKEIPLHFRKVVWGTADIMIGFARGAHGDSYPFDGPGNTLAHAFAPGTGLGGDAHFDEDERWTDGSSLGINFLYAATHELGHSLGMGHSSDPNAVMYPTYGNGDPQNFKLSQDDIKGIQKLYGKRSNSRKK
Description: (§1) MMP01, MMP07, MMP09, and MMP13 activity was assayed in a method similar to MMP02 and MMP03 (SCD and GCD). MMP01 and MMP09 can be obtained from Washington University School of Medicine, St. Louis, Mo. MMP07 can be obtained in accordance with the known procedure set forth by Ye QZ, Johnson L. L., and Baragi V., "Gene Syntheses and Expression in E. coli for PUMP, a Human Matrix Metalloproteinase" Biochem. and Biophys. […] MMP 13 can be obtained in accordance with the known procedure set forth by Freije J. M. P., et al., "Molecular Cloning and Expression of Collegenase-3, a Novel Human Matrix Metalloproteinase Produced by Breast Carcinomas" J. Bio.
(§2) Hydrolysis of the thiopeptolide substrate Ac-Pro-Leu-Gly-thioester-Leu-Leu-Gly-OEt (Bachem) is used as the primary screen to determine IC50 values for MMP inhibitors. A 100 μL reaction contains 1 mM 5,5'-dithiobis(2-nitrobenzoic acid) (DTNB), 100 μM substrate, 0.1% Brij, enzyme, and inhibitor in the appropriate reaction buffer. Activated full-length enzymes are assayed at 5 nM, Stromelysin Catalytic Domain (SCD) at 10 nM, and Gelatinase A Catalytic Domain (GaCD) at 1 nM. Inhibitors are screened from 100 μM to 1 nM. Full-length enzymes are assayed in 50 mM HEPES, 10 mM CaCl2, pH 7.0; SCD in 50 mM MES, 10 mM CaCl2, pH 6.0; and GaCD in 50 mM MOPS, 10 mM CaCl2, 10 μM ZnCl2, pH 7.0.

[1] = target: gelatinase A catalytic domain (MMP02); experiment: Thiopeptolide assay, gelatinase A catalytic domain (GCD, MMP02); type: biochemical; settings: Tables 2, 3, 5, 7; read-out: IC50 MMP-2CD
Description: as §2

MMP01 = target: T2, MMP01 (Homo sapiens, UniProt P03956); experiment: Thiopeptolide assay, MMP01; type: biochemical; settings: Tables 2, 3, 5, 7; read-out: IC50 MMP1
T2 construct: purchased Washington University School of Medicine, St. Louis, Mo
T2 sequence (P03956 100-469): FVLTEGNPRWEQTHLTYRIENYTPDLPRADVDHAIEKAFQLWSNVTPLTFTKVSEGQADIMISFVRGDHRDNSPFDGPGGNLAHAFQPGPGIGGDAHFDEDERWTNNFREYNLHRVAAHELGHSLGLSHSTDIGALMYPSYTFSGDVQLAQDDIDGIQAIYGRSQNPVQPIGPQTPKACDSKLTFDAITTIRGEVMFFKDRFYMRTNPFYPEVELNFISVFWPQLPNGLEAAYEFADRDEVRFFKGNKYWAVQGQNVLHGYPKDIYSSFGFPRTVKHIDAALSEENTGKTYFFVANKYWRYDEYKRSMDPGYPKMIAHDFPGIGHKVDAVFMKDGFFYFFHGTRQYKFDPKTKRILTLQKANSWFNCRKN
Description: as §1, §2

[2] = target: T3, stromelysin-1 catalytic domain (MMP03) (Homo sapiens, UniProt P08254); experiment: Thiopeptolide assay, stromelysin-1 catalytic domain (SCD, MMP03); type: biochemical; settings: Tables 2, 3, 5, 7; read-out: IC50 MMP 3CD
T3 construct: SCD (stromelysin-1 catalytic domain); made in house; host or cells: Escherichia coli
Description: as §2

MMP-13CD = experiment: Thiopeptolide assay, MMP-13CD; type: biochemical, human; settings: Tables 2, 3, 5, 7
Description: IC50 values were determined using a thiopeptolide substrate, Ac-Pro-Leu-Gly-thioester-Leu-Leu-Gly-OEt (Ye Q.-Z., Johnson L. L., Hupe D. J., and Baragi V., "Purification and Characterization of the Human Stromelysin Catalytic Domain Expressed in Escherichia coli," Biochemistry, 1992;31:11231-11235). MMP01, MMP07, MMP09, and MMP13 activity was assayed in a method similar to MMP02 and MMP03 (SCD and GCD). MMP01 and MMP09 can be obtained from Washington University School of Medicine, St. Louis, Mo. MMP07 can be obtained in accordance with the known procedure set forth by Ye QZ, Johnson L. L., and Baragi V., "Gene Syntheses and Expression in E. coli for PUMP, a Human Matrix Metalloproteinase" Biochem. and Biophys. Res. Comm., 1992; 186:143-149. MMP 13 can be obtained in accordance with the known procedure set forth by Freije J. M. P., et al., "Molecular Cloning and Expression of Collegenase-3, a Novel Human Matrix Metalloproteinase Produced by Breast Carcinomas" J. Bio. Chem., 1994;269:16766-6773.
as §2, with “7.0. The change in absorbance at 405 riM is monitored on a ThermoMax microplate reader at room temperature continuously for 20 minutes.” for “7.0.”

T3 sequence (P08254 100-272 limits assumed): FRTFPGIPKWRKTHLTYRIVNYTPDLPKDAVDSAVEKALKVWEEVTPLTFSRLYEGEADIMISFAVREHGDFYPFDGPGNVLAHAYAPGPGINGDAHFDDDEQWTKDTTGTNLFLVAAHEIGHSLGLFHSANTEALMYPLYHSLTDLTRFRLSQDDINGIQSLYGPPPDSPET

IC50 (MMP07) [µM]	IC50 [1] [µM]	IC50 (MMP01) [µM]	IC50 [2] [µM]	IC50 (MMP-13CD) [µM]	Compound
12.3	0.3	40.9	0.4	0.3	O=C(CCC(NS(=O)(=O)c1ccc2oc3ccccc3c2c1)C(=O)O)NCc1cccs1 (stereo not shown) [Example F7, 2-(Dibenzofuran-2-sulfonylamino)-4-[(thiophen-2-ylmethyl)-carbamoyl]-butyric acid]
> 100	5.5	> 100	6.5	34.4	Cc1cc(OCCCC(=O)NCCCCC(NS(=O)(=O)c2ccc3oc4ccccc4c3c2)C(=O)O)ccc1Cl (stereo not shown) [Example A16, 6-[4-(4-Chloro-3-methyl-phenoxy)-butyrylamino]-2-(dibenzofuran-2-sulfonylamino)-hexanoic acid]
> 100	3.3	> 100	7.5	9.2	O=C(CCCc1ccc([N+](=O)[O-])cc1)NCCCCC(NS(=O)(=O)c1ccc2oc3ccccc3c2c1)C(=O)O (stereo not shown) [Example A21, 2-(Dibenzofuran-2-sulfonylamino)-6-[4-(4-nitro-phenyl)-butyrylamino]-hexanoic acid]
> 100	1.5	> 100	3.9	8	CCC(Oc1ccccc1)C(=O)NCCCCC(NS(=O)(=O)c1ccc2oc3ccccc3c2c1)C(=O)O (stereo not shown) [Example A6, 2-(Dibenzofuran-2-sulfonylamino)-6-(2-phenoxy-butrylamino)-hexanoic acid]
14.8	0.2	68.7	0.2	0.3	O=C(CCC(NS(=O)(=O)c1ccc2oc3ccccc3c2c1)C(=O)O)NC1CC1 (stereo not shown) [Example F6, 4-Cyclopropylcarbamoyl-2-(dibenzofuran-2-sulfonylamino)-butyric acid]
> 100	22.2	> 100	89.3	> 100	O=C(NCCCCC(NS(=O)(=O)c1ccc2oc3ccccc3c2c1)C(=O)O)Nc1ccc(Cl)c(Cl)c1 (stereo not shown) [Example B2, 2-(Dibenzofuran-2-sulfonylamino)-6-[3-(3,4dichloro-phenyl)-ureido]-hexanoicacid]
> 100	1.2	> 100	2.3	7.3	COc1ccc(OCC(=O)NCCCCC(NS(=O)(=O)c2ccc3oc4ccccc4c3c2)C(=O)O)cc1 (stereo not shown) [Example A13, 2-(Dibenzofuran-2-sulfonylamino)-6-[2-(4-methoxy-phenoxy)-acetylamino]-hexanoic acid]
22.1	0.4	> 100	1.1	1	O=C(CCC(NS(=O)(=O)c1ccc2oc3ccccc3c2c1)C(=O)O)NCc1cccc2ccccc12 (stereo not shown) [Example F16]
> 100	7.8	> 100	5.2	42.6	O=C(COc1cccc2ccccc12)NCCCCC(NS(=O)(=O)c1ccc2oc3ccccc3c2c1)C(=O)O (stereo not shown) [Example A14, 2-(Dibenzofuran-2-sulfonylamino)-6-[2-(naphthalen-1-yloxy)acetylamino]-hexanoic acid]
53.3	0.7	> 100	0.9	4.4	COc1ccc(CCC(=O)NCCCCC(NS(=O)(=O)c2ccc3oc4ccccc4c3c2)C(=O)O)cc1 (stereo not shown) [Example A17, 2-(Dibenzofuran-2-sulfonylamino)-6-[3-(4-methoxy-phenyl)-propionylamino]-hexanoic acid]
92.1	1.4	> 100	2.5	3.3	O=C(O)C(CCCCNS(=O)(=O)c1ccccc1)NS(=O)(=O)c1ccc2oc3ccccc3c2c1 (stereo not shown) [Example D6, 6-Benzenesulfonylamino-2-(dibenzofuran-2-sulfonylamino)-hexanoic acid]
> 100	1.1	> 100	1.7	4.4	O=C(CCCc1cccs1)NCCCCC(NS(=O)(=O)c1ccc2oc3ccccc3c2c1)C(=O)O (stereo not shown) [Example A35, 2-(Dibenzofuran-2-sulfonylamino)-6-[4-thiophen-2-yl-butyrylamino)-hexanoic acid]
> 100	1.1	> 100	7.7	5.8	Cc1ccc(CCC(=O)NCCCCC(NS(=O)(=O)c2ccc3oc4ccccc4c3c2)C(=O)O)cc1 (stereo not shown) [Example A27, 2-(Dibenzofuran-2-sulfonylamino)-6-(3-p-tolyl-propionylamino)-hexanoic acid]
> 100	2.5	> 100	4.2	11.1	O=C(O)C(CCCCNS(=O)(=O)C=Cc1ccccc1)NS(=O)(=O)c1ccc2oc3ccccc3c2c1 (stereo not shown) [Example D10, 2-(Dibenzofuran-2-sulfonylamino)-6-(2-phenyl-ethenesulfonylamino)-hexanoic acid]
> 100	1.5	> 100	4.2	5.4	O=C(CCCc1ccccc1)NCCCCC(NS(=O)(=O)c1ccc2oc3ccccc3c2c1)C(=O)O (stereo not shown) [Example A26, 2-(Dibenzofuran-2-sulfonylamino)-6-(4-phenyl-butyrylamino)-hexanoic acid]
> 100	1.8	> 100	4.6	7.1	COc1ccc(S(=O)(=O)NCCCCC(NS(=O)(=O)c2ccc3oc4ccccc4c3c2)C(=O)O)cc1 (stereo not shown) [Example D2, 2-(Dibenzofuran-2-sulfonylamino)-6-(4-methoxy-benzenesulfonylamino)-hexanoic acid]
> 100	9.3	> 100	26.5	24.1	O=C(CCC(NS(=O)(=O)c1ccc2oc3ccccc3c2c1)C(=O)O)NCCCCc1ccccc1 (stereo not shown) [Example F13, 2-(Dibenzofuran-2-sulfonylamino)-4-(4-phenyl-butylcarbamoyl)-butyric acid]
